# ChEMBL document CHEMBL1201861, “Genomics of Drug Sensitity in Cancer screening data, Wellcome Trust Sanger Institute”
# pIC50: −log10 of the molar value.
# What was measured:
# Assay in all cases: cells
# CP66-MEL = format: functional, cell-based, Homo sapiens; details: Homo sapiens, CP66-MEL;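 note: growth inhibition of CP66-MEL cells determined in a cell viability assay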
# Description: SANGER: Inhibition of human CP66-MEL cell growth in a cell viability assay.
# CTV-1 = format: functional, cell-based, Homo sapiens; details: Homo sapiens, CTV-1;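 note: growth inhibition of the cell line, read out with a cell viability assay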
# Description: SANGER: Inhibition of human CTV-1 cell growth in a cell viability assay.
# CW-2 = format: functional, cell-based, Homo sapiens; details: Homo sapiens, CW-2;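 note: growth inhibition of CW-2 cells, read out by a cell viability assay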
# Description: SANGER: Inhibition of human CW-2 cell growth in a cell viability assay.
# DB = format: functional, cell-based, Homo sapiens; details: Homo sapiens, DB
# Description: SANGER: Inhibition of human DB cell growth in a cell viability assay.
# DOHH-2 = format: functional, cell-based, Homo sapiens; details: Homo sapiens, DOHH-2;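 note: growth inhibition of human DOHH-2 cells, read out with a cell viability assay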
# Description: SANGER: Inhibition of human DOHH-2 cell growth in a cell viability assay.
# EKVX = format: functional, cell-based, Homo sapiens; details: Homo sapiens, EKVX;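 note: growth inhibition of human EKVX cells, read out with a cell viability assay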
# Description: SANGER: Inhibition of human EKVX cell growth in a cell viability assay.
# ES6 = format: functional, cell-based, Homo sapiens; details: Homo sapiens, ES6;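 note: growth inhibition of human ES6 cells, read out with a cell viability assay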
# Description: SANGER: Inhibition of human ES6 cell growth in a cell viability assay.
# ETK-1 = format: functional, cell-based, Homo sapiens; details: Homo sapiens, ETK-1;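 note: growth inhibition of human ETK-1 cells, read out with a cell viability assay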
# Description: SANGER: Inhibition of human ETK-1 cell growth in a cell viability assay.
# EW-18 = format: functional, cell-based, Homo sapiens; details: Homo sapiens, EW-18;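 note: growth inhibition of EW-18 cells, read out by a cell viability assay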
# Description: SANGER: Inhibition of human EW-18 cell growth in a cell viability assay.
# EOL1 = format: functional, cell-based, Homo sapiens; details: Homo sapiens, EOL1;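 note: growth inhibition of EoL-1 cells, read out by a cell viability assay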
# Description: SANGER: Inhibition of human EoL-1-cell cell growth in a cell viability assay.
# GCIY = format: functional, cell-based, Homo sapiens; details: Homo sapiens, GCIY;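 note: growth inhibition of the human GCIY cell line, read out by a cell viability assay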
# Description: SANGER: Inhibition of human GCIY cell growth in a cell viability assay.
# HT-144 = format: functional, cell-based, Homo sapiens; details: Homo sapiens, HT-144
# Description: SANGER: Inhibition of human HT-144 cell growth in a cell viability assay.
# HuTu80 = format: functional, cell-based, Homo sapiens, HUTU-80; details: Homo sapiens, HuTu80;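 note: growth inhibition of HuTu80 human cells, determined with a cell viability readout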
# Description: SANGER: Inhibition of human HUTU-80 cell growth in a cell viability assay.
# IST-MEL1 = format: functional, cell-based, Homo sapiens; details: Homo sapiens, IST-MEL1;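 note: growth inhibition of the cell line, read out with a cell viability assay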
# Description: SANGER: Inhibition of human IST-MEL1 cell growth in a cell viability assay.
# JVM-3 = format: functional, cell-based, Homo sapiens; details: Homo sapiens, JVM-3;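 note: growth inhibition of human JVM-3 cells, read out with a cell viability assay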
# Description: SANGER: Inhibition of human JVM-3 cell growth in a cell viability assay.
# KGN = format: functional, cell-based, Homo sapiens; details: Homo sapiens, KGN;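 note: growth inhibition of KGN cells, read out with a cell viability assay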
# Description: SANGER: Inhibition of human KGN cell growth in a cell viability assay.
# KM12 = format: functional, cell-based, Homo sapiens; details: Homo sapiens, KM12;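 note: KM12 cell growth inhibition, read out with a cell viability assay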
# Description: SANGER: Inhibition of human KM12 cell growth in a cell viability assay.
# KNS-42 = format: functional, cell-based, Homo sapiens; details: Homo sapiens, KNS-42;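 note: growth inhibition of KNS-42 cells, read out with a cell viability assay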
# Description: SANGER: Inhibition of human KNS-42 cell growth in a cell viability assay.
# KY821 = format: functional, cell-based, Homo sapiens; details: Homo sapiens, KY821;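 note: growth inhibition of human KY821 cells, read out by a cell viability assay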
# Description: SANGER: Inhibition of human KY821 cell growth in a cell viability assay.
# LB2241-RCC = format: functional, cell-based, Homo sapiens; details: Homo sapiens, LB2241-RCC;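 note: cell viability assay measuring how strongly the cultured human renal carcinoma line is prevented from growing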
# Description: SANGER: Inhibition of human LB2241-RCC cell growth in a cell viability assay.
# Lu-65 = format: functional, cell-based, Homo sapiens; details: Homo sapiens, Lu-65;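 note: growth inhibition of Lu-65 cancer cells, read out by a cell viability assay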
# Description: SANGER: Inhibition of human LU-65 cell growth in a cell viability assay.
# MEG-01 = format: functional, cell-based, Homo sapiens; details: Homo sapiens, MEG-01;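 note: growth inhibition of MEG-01 cells, read out by a cell viability assay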
# Description: SANGER: Inhibition of human MEG-01 cell growth in a cell viability assay.
# MHH-PREB-1 = format: functional, cell-based, Homo sapiens; details: Homo sapiens, MHH-PREB-1;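 note: cell viability assay measuring inhibition of proliferation of human MHH-PREB-1 cells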
# Description: SANGER: Inhibition of human MHH-PREB-1 cell growth in a cell viability assay.
# MN-60 = format: functional, cell-based, Homo sapiens; details: Homo sapiens, MN-60;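 note: growth inhibition of the MN-60 cell line, determined with a cell viability assay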
# Description: SANGER: Inhibition of human MN-60 cell growth in a cell viability assay.
# MOLT-4 = format: functional, cell-based, Homo sapiens; details: Homo sapiens, MOLT-4;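 note: growth inhibition of MOLT-4 cells, determined with a cell viability readout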
# Description: SANGER: Inhibition of human MOLT-4 cell growth in a cell viability assay.
# MS-1 = format: functional, cell-based, Homo sapiens; details: Homo sapiens, MS-1;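 note: growth inhibition of MS-1 cells, read out by cell viability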
# Description: SANGER: Inhibition of human MS-1 cell growth in a cell viability assay.
# MV4-11 = format: functional, cell-based, Homo sapiens, MV-4-11; details: Homo sapiens, MV4-11;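 note: cell viability readout measuring growth inhibition of human MV-4-11 cells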
# Description: SANGER: Inhibition of human MV-4-11 cell growth in a cell viability assay.
# MZ1-PC = format: functional, cell-based, Homo sapiens; details: Homo sapiens, MZ1-PC;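 note: cell viability assay measuring growth inhibition of human MZ1-PC cells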
# Description: SANGER: Inhibition of human MZ1-PC cell growth in a cell viability assay.
# NB5 = format: functional, cell-based, Homo sapiens; details: Homo sapiens, NB5;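 note: growth inhibition of NB5 cells, read out as cell viability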
# Description: SANGER: Inhibition of human NB5 cell growth in a cell viability assay.
# NB6 = format: functional, cell-based, Homo sapiens; details: Homo sapiens, NB6;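 note: growth inhibition of NB6 cells, read out by a cell viability assay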
# Description: SANGER: Inhibition of human NB6 cell growth in a cell viability assay.
# NCI-H1092 = format: functional, cell-based, Homo sapiens; details: Homo sapiens, NCI-H1092;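 note: cell growth inhibition measured with a cell viability assay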
# Description: SANGER: Inhibition of human NCI-H1092 cell growth in a cell viability assay.
# NCI-H1155 = format: functional, cell-based, Homo sapiens; details: Homo sapiens, NCI-H1155;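 note: cell growth inhibition measured by a viability assay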
# Description: SANGER: Inhibition of human NCI-H1155 cell growth in a cell viability assay.
# NEC8 = format: functional, cell-based, Homo sapiens; details: Homo sapiens, NEC8;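 note: growth inhibition of human NEC8 cells, read out by a cell viability assay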
# Description: SANGER: Inhibition of human NEC8 cell growth in a cell viability assay.
# NKM-1 = format: functional, cell-based, Homo sapiens; details: Homo sapiens, NKM-1;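 note: growth inhibition of NKM-1 cells, read out with a cell viability assay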
# Description: SANGER: Inhibition of human NKM-1 cell growth in a cell viability assay.
# NOMO-1 = format: functional, cell-based, Homo sapiens; details: Homo sapiens, NOMO-1;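 note: growth inhibition of human NOMO-1 cells measured by a cell viability assay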
# Description: SANGER: Inhibition of human NOMO-1 cell growth in a cell viability assay.
# OMC-1 = format: functional, cell-based, Homo sapiens; details: Homo sapiens, OMC-1;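 note: growth inhibition of the OMC-1 cell line, measured by a cell viability assay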
# Description: SANGER: Inhibition of human OMC-1 cell growth in a cell viability assay.
# RKO = format: functional, cell-based, Homo sapiens; details: Homo sapiens, RKO;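 note: growth inhibition of human RKO cells, read out with a cell viability assay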
# Description: SANGER: Inhibition of human RKO cell growth in a cell viability assay.
# RXF 393 = format: functional, cell-based, Homo sapiens; details: Homo sapiens, RXF 393;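 note: growth inhibition of human RXF 393 cells, read out with a cell viability assay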
# Description: SANGER: Inhibition of human RXF393 cell growth in a cell viability assay.
# SF-268 = format: functional, cell-based, Homo sapiens; details: Homo sapiens, SF-268;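 note: growth inhibition of SF-268 cells determined with a cell viability assay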
# Description: SANGER: Inhibition of human SF268 cell growth in a cell viability assay.
# SK-N-FI = format: functional, cell-based, Homo sapiens; details: Homo sapiens, SK-N-FI;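 note: cell viability assay measuring growth inhibition of human SK-N-FI cells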
# Description: SANGER: Inhibition of human SK-N-FI cell growth in a cell viability assay.
# SW684 = format: functional, cell-based, Homo sapiens; details: Homo sapiens, SW684;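 note: growth inhibition of human SW684 cells, measured by a cell viability assay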
# Description: SANGER: Inhibition of human SW684 cell growth in a cell viability assay.
# SW982 = format: functional, cell-based, Homo sapiens; details: Homo sapiens, SW982;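 note: growth inhibition of SW982 cells, read out with a cell viability assay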
# Description: SANGER: Inhibition of human SW982 cell growth in a cell viability assay.
# 8-MG-BA = format: functional, cell-based, Homo sapiens; details: Homo sapiens, 8-MG-BA;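 note: growth inhibition of 8-MG-BA cells, read out with a cell viability assay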
# Description: SANGER: Inhibition of human 8-MG-BA cell growth in a cell viability assay.
# BB65-RCC = format: functional, cell-based, Homo sapiens; details: Homo sapiens, BB65-RCC;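 note: growth inhibition of the cell line, measured with a cell viability assay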
# Description: SANGER: Inhibition of human BB65-RCC cell growth in a cell viability assay.
# BT-474 = format: functional, cell-based, Homo sapiens; details: Homo sapiens, BT-474
# Description: SANGER: Inhibition of human BT-474 cell growth in a cell viability assay.
# TE-12 = format: functional, cell-based, Homo sapiens; details: Homo sapiens, TE-12;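 note: growth inhibition of TE-12 cells, read out by a cell viability assay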
# Description: SANGER: Inhibition of human TE-12 cell growth in a cell viability assay.
# TGBC24TKB = format: functional, cell-based, Homo sapiens; details: Homo sapiens, TGBC24TKB;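 note: growth inhibition of human TGBC24TKB cells, read out with a cell viability assay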
# Description: SANGER: Inhibition of human TGBC24TKB cell growth in a cell viability assay.
# TGW = format: functional, cell-based, Homo sapiens; details: Homo sapiens, TGW;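 note: growth inhibition of human TGW cells, read out with a cell viability assay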
# Description: SANGER: Inhibition of human TGW cell growth in a cell viability assay.
# no-10 = format: functional, cell-based, Homo sapiens; details: Homo sapiens;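 note: growth inhibition of no-10 cells, read out with a cell viability assay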
# Description: SANGER: Inhibition of human no-10 cell growth in a cell viability assay.
# COLO-668 = format: functional, cell-based, Homo sapiens; details: Homo sapiens, COLO-668
# Description: SANGER: Inhibition of human COLO-668 cell growth in a cell viability assay.
smiles,measurement,setting,value
N#Cc1c(O)c2c(-c3ccc(-c4ccccc4O)cc3)csc2[nH]c1=O,pIC50,CP66-MEL,< 5.99
same,pIC50,CTV-1,7.14
same,pIC50,CW-2,< 5.99
same,pIC50,DB,6.31
same,pIC50,DOHH-2,6.61
same,pIC50,EKVX,< 5.99
same,pIC50,ES6,< 5.99
same,pIC50,ETK-1,< 5.99
same,pIC50,EW-18,6.35
same,pIC50,EOL1,7.02
same,pIC50,GCIY,< 5.99
same,pIC50,HT-144,< 5.99
same,pIC50,HuTu80,< 5.99
same,pIC50,IST-MEL1,< 5.99
same,pIC50,JVM-3,< 5.99
same,pIC50,KGN,< 5.99
same,pIC50,KM12,7.49
same,pIC50,KNS-42,< 5.99
same,pIC50,KY821,6.09
same,pIC50,LB2241-RCC,< 5.99
same,pIC50,Lu-65,6.28
same,pIC50,MEG-01,6.57
same,pIC50,MHH-PREB-1,6.74
same,pIC50,MN-60,6.46
same,pIC50,MOLT-4,6.94
same,pIC50,MS-1,6.08
same,pIC50,MV4-11,7.64
same,pIC50,MZ1-PC,< 5.99
same,pIC50,NB5,< 5.99
same,pIC50,NB6,< 5.99
same,pIC50,NCI-H1092,6.27
same,pIC50,NCI-H1155,< 5.99
same,pIC50,NEC8,6.32
same,pIC50,NKM-1,< 5.99
same,pIC50,NOMO-1,6.58
same,pIC50,OMC-1,< 5.99
same,pIC50,RKO,< 5.99
same,pIC50,RXF 393,< 5.99
same,pIC50,SF-268,< 5.99
same,pIC50,SK-N-FI,< 5.99
same,pIC50,SW684,< 5.99
same,pIC50,SW982,< 5.99
same,pIC50,8-MG-BA,< 5.99
same,pIC50,BB65-RCC,< 5.99
same,pIC50,BT-474,6.82
same,pIC50,TE-12,< 5.99
same,pIC50,TGBC24TKB,< 5.99
same,pIC50,TGW,6.51
same,pIC50,no-10,< 5.99
same,pIC50,COLO-668,< 5.99
CC(C)CCN1c2nc(Nc3cc(F)c(O)c(F)c3)ncc2N(C)C(=O)C1C (stereo not given),pIC50,CP66-MEL,< 5.30
same,pIC50,CTV-1,6.32
same,pIC50,CW-2,< 5.30
same,pIC50,DB,5.59
same,pIC50,DOHH-2,< 5.30
same,pIC50,EKVX,< 5.30
same,pIC50,ES6,< 5.30
same,pIC50,ETK-1,5.36
same,pIC50,EW-18,6.21
same,pIC50,EOL1,5.99
same,pIC50,GCIY,5.33
same,pIC50,HT-144,< 5.30
same,pIC50,HuTu80,5.44
same,pIC50,IST-MEL1,< 5.30
same,pIC50,JVM-3,5.51
same,pIC50,KGN,< 5.30
same,pIC50,KM12,5.51
same,pIC50,KNS-42,< 5.30
same,pIC50,KY821,6.05
same,pIC50,LB2241-RCC,5.43
same,pIC50,Lu-65,< 5.30
same,pIC50,MEG-01,< 5.30
same,pIC50,MHH-PREB-1,5.36
same,pIC50,MN-60,5.61
same,pIC50,MOLT-4,5.47
same,pIC50,MS-1,< 5.30
same,pIC50,MV4-11,6.01
same,pIC50,MZ1-PC,5.42
same,pIC50,NB5,< 5.30
same,pIC50,NB6,5.61
same,pIC50,NCI-H1092,< 5.30
same,pIC50,NCI-H1155,< 5.30
same,pIC50,NEC8,5.77
same,pIC50,NKM-1,< 5.30
same,pIC50,NOMO-1,< 5.30
same,pIC50,OMC-1,< 5.30
same,pIC50,RKO,5.33
same,pIC50,RXF 393,< 5.30
same,pIC50,SF-268,5.54
same,pIC50,SK-N-FI,< 5.30
same,pIC50,SW684,< 5.30
same,pIC50,SW982,< 5.30
same,pIC50,8-MG-BA,5.65
same,pIC50,BB65-RCC,5.46
same,pIC50,BT-474,< 5.30
same,pIC50,TE-12,< 5.30
same,pIC50,TGBC24TKB,< 5.30
same,pIC50,TGW,5.98
same,pIC50,no-10,< 5.30
same,pIC50,COLO-668,< 5.30
